From the OligoGym collection come the findings set out here.

These antisense oligonucleotides have a phosphorothioate backbone; sugars and methylation of C are not fully specified.
Further: test concentration or dose not given here.

The first data set addresses ABCB1. To be noted: ASO.
Take TTGCGGTCCCCTTCAAGATC: the remaining target (mRNA or protein) (fraction of control) was determined as 0.09.
CGGTCCCCTTCAAGATCCAT came in with a remaining target (mRNA or protein) (fraction of control) of 0.
On the same count and under the same terms, next, TCCGACTTTAGTGGAAAGAC: 0.9; TCTTCTTTGCTCCTCCATTG: 0.67.
Take CCCGACCTCGCGCTCCTTGG: the remaining target (mRNA or protein) (fraction of control) was found to be 0.15.
Same read-out and setting: next, ACTTTTATTGTTCAGTTTAAA: 0.97.
Same read-out and setting: next, CGTCCTTGGAACGGCCACCA: 0.18; CGCGTCCTTGGAACGGCCAC: 0.15; AAAAGTTCTTCTTTGCTGCT: 0.92.
Same read-out and setting: next, TTGAGCTTGGAAGAGCCGCTA: 0.54; TACTCCGACTTTAGTGGAAA: 0.84.
ATACTGACAGTTGGTTTCT registered a remaining target (mRNA or protein) (fraction of control) of 0.65.
Still for that read-out and setting: next, CATCCCGACCTCGCGCTCCT: 0.

The target of a further data set is IL11. To be noted: ASO.
For the sequence TTGGACGGACGGCCGTGGAG, the remaining target (mRNA or protein) (fraction of control) is 0.75.

Another data set concerns the target IGF2. To be noted: ASO.
GGAACTCAGTGGAACTCAGG: the remaining target (mRNA or protein) (fraction of control) was 0.11.
In turn, TAAATAAGGACCAGCTCCCA showed a remaining target (mRNA or protein) (fraction of control) of 0.41.
Still for that read-out and setting: next, GTGAAGGCAGACCACCGACC: 0.27; CTCTTCTGCCCTGTTTTGTC: 0.31.
Turning to CCCACCTCCATCACCATGGC, the remaining target (mRNA or protein) (fraction of control) is 0.52.
The same measure, in the same setting: next, ACCGCGCTTTCCTCCCGCCG: 0.53; AGCCCCAGCGACCCCAGCGT: at least 1; CGATCTTGTGCGGTGTCCTG: 0.86.
Regarding TCACCATGGCCAGCCCCAGC, the remaining target (mRNA or protein) (fraction of control) came to 0.81.
For TACAAGATAGTACAGTACGC, the remaining target (mRNA or protein) (fraction of control) is 0.33.
On the same count and under the same terms, next, CGCGCATGTCATCGGGAATG: 0.31.

Another data set concerns the target ABCC1. As to conditions: ASO.
Sequence CAGGAGGTCCGATGGGGCGC showed a remaining target (mRNA or protein) (fraction of control) of 0.95.
Still for that read-out and setting: next, TGCTGTTCGTGCCCCCGCCG: 0.51; AGGCCCTGCAGTTCTGACCA: 0.95; CCGGTGGCGCGGGCGGCGGC: 0.69.
As for AGCCCCGGAGCGCCATGCCG, the remaining target (mRNA or protein) (fraction of control) came to 0.74.
On the same count and under the same terms, next, GCGGCGATGGGCGTGGCCAG: 0.73; GGTGATCGGGCCCGGTTGCT: 0.68.
As for CTCCTCCCTGGGCGCTGGCA, the remaining target (mRNA or protein) (fraction of control) was determined as 0.74.
CGCGCTGCTTCTGGCCCCCA yielded a remaining target (mRNA or protein) (fraction of control) of 0.56.
Same read-out and setting: next, GCTCACACCAAGCCGGCGTC: 0.78.
The same measure, in the same setting: next, TCGGAGCCATCGGCGCTGCA: 0.8; GGCACCCACACGAGGACCGT: 0.79; CGGGGCCGCAACGCCGCCTG: 0.95.
Regarding CGCATCTCTGTCTCTCCTGG, the remaining target (mRNA or protein) (fraction of control) is 0.77.
Same read-out and setting: next, ACCGGATGGCGGTGGCTGCT: 0.73.
